Test: xn = mol fraction of the nth substance listed
Settings: 101 kPa, Liquid; for speed of sound: Sing-around technique in a fixed-path interferometer; for mass density: Vibrating tube method

CCCCCC[n+]1ccccc1.[Cl-] [1-hexylpyridinium chloride] + O
Settings | mass density, 308.15 K [kg/m3] | mass density, 318.15 K [kg/m3] | speed of sound, 308.15 K [m/s] | speed of sound, 318.15 K [m/s]
x2 = 0.0598 | 1146.46 | 1142.37 | 1569.2 | 1548.7
x2 = 0.1085 | 1146.26 | 1142.04 | 1567.4 | 1548.1
x2 = 0.2068 | 1145.6 | 1141.23 | 1564.8 | 1547.2
x2 = 0.2492 | 1145.16 | 1140.76 | 1563.9 | 1546.6
x2 = 0.3024 | 1144.44 | 1140.03 | 1562.9 | 1546
x2 = 0.4166 | 1142.05 | 1137.61 | 1560.3 | 1544.8
x2 = 0.4568 | 1140.82 | 1136.36 | 1559.6 | 1544.1
x2 = 0.5065 | 1138.92 | 1134.43 | 1557.6 | 1543.4
x2 = 0.6137 | 1132.92 | 1128.25 | 1553.2 | 1542
x2 = 0.6533 | 1129.75 | 1124.99 | 1550.8 | 1541.4
x2 = 0.709 | 1124.03 | 1119.08 | 1547.4 | 1540.6
x2 = 0.7521 | 1118.2 | 1113.12 | 1542.8 | 1540
x2 = 0.7936 | 1110.94 | 1105.73 | 1539.5 | 1539.4
x2 = 0.8561 | 1095.34 | 1090.02 | 1534 | 1538.6
x2 = 0.8966 | 1080.31 | 1074.99 | 1529.9 | 1538.2
x2 = 0.9528 | 1046.95 | 1042 | 1524.5 | 1537.2

Source: the NIST ThermoML archive (doi:10.1021/acs.jced.6b00460)
